{"source": "patent US8362248B2", "about": "“Substituted pyridinyl and pyrimidinyl derivatives as modulators of metabolism and the treatment of disorders related thereto” (Arena Pharmaceuticals, Inc., priority 2005, dated 2013)", "key": {"[1]": {"biological_target": "T1, RUP3 (Homo sapiens, UniProt Q8TDV5)", "T1 construct": "ID; No:2; expressed in transfected cells; host or cells: melanophores (cultured as per Potenza and Lerner 1992), electroporated", "T1 sequence (Q8TDV5 with tags, fused parts or gaps)": "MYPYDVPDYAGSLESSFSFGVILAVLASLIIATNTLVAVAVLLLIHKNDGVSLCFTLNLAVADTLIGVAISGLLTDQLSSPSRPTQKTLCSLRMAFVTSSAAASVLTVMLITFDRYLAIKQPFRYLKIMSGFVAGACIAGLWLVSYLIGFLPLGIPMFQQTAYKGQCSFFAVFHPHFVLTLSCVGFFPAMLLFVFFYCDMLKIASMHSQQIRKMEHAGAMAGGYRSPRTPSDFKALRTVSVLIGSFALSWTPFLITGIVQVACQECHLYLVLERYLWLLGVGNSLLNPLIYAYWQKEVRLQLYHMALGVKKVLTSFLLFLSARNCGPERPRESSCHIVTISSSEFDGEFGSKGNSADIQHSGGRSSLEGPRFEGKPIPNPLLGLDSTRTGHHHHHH", "experiment": "RUP3 dose responses in melanophores (melanophore dispersion assay)", "type": "cell-based", "method": "Melanophores are maintained in culture as reported by Potenza, M. N. and Lerner, M. R., in Pigment Cell Research, Vol. 5, 372-378, 1992 and transfected with the RUP3 expression vector (pCMV) using electroporation. Following electroporation, the transfected cells are plated into 96 well plates for the assay. The cells are then allowed to grow for 48 hours in order to both recover from the electroporation procedure and attain maximal receptor expression levels.\nOn the assay day, the growth medium on the cells is replaced with serum-free buffer containing 10 nM melatonin. The melatonin acts via an endogenous Gi-coupled GPCR in the melanophores to lower intracellular cAMP levels. In response to lowered cAMP levels, the melanophores translocate their pigment to the center of the cell. The net effect of this is a significant decrease in the absorbance reading of the cell monolayer in the well, measured at […].\nAfter a 1-hour incubation in melatonin, the cells become completely pigment-aggregated. At this point a baseline absorbance reading is collected. Serial dilutions of test compounds are then added to the plate and compounds that stimulate RUP3 produce increases in intracellular cAMP levels. In response to these increased cAMP levels, the melanophores translocate their pigment back into the cell periphery. After one hour, stimulated cells are fully pigment-dispersed. The cell monolayer in the dispersed state absorbs much more light in the 600-650 nm range. The measured increase in absorbance compared to the baseline reading allows one to quantitate the degree of receptor stimulation and plot a dose-response curve.\nThe compounds in the above examples were screened using the melanophore dispersion assay, as described above."}, "[2]": {"tested_on": "Male C57b1/6J mice", "experiment": "Oral glucose tolerance test (oGTT) in mice", "type": "in vivo", "details": "for lowering of blood glucose in oGTT (in words): mice after challenge with glucose; for Mean % Inhibition of Glucose Excursion: oGTT, mice, p.o.", "method": "A. Oral Glucose tolerance test (oGTT)\n[…] Compounds were delivered orally via a gavage needle (p.o., volume 10 mL/Kg). At time 0, levels of blood glucose were assessed using a glucometer (Elite XL, Bayer), and mice were administered either vehicle (20% hydroxypropyl-beta-cyclodextrin) or test compound. Thirty minutes after administration of test compound, levels of blood glucose were again assessed, and mice were administered dextrose orally at a dose of 3 g/Kg. Blood glucose measurements were then taken 20 min, 40 min, 60 min and 120 min after this time."}, "[3]": {"experiment": "Aqueous solubility", "type": "physicochemical", "details": "aqueous medium, aqueous buffer"}, "[4]": {"experiment": "Rat dose-range PK study (dose escalation pharmacokinetics)", "type": "in vivo", "method": "Animal, Compound Formulation, Dosing, and Blood Sample Collection: […]\nMale SD rats (250-300 g) were purchased from Charles River Laboratory; upon reciept, animals were placed under light-dark cycle (6:30 am-6:30 pm lights on). They were allowed ad libitum access to water and 4 pieces of food daily (Purina Meals Rodent Diet, Product Number 5001).\nCompound formulations were prepared as following: The IV injection formulation was prepared in 20% hydroxypropyl-beta-cyclodextrin with concentration of […]. The PO formulations were prepared in 0.5% hydroxypropyl methylcellulose with concentrations of […]. […]\nPlasma samples were prepared as follows. […] Calibration standards were typically prepared in the range of 2.0 ng/mL to 10 μg/mL with linear regression for quantitation. […]\nResults were calculated by noncompartmental analysis using WinNonlin Pro version 3.1 based on plasma concentration—time profiles for individual animals. Plasma levels were determined as described above and the oral and intravenous area under the concentration vs. time curve (AUC was calculated using the linear trapezoidal rule up to the last measurable concentration and was then extrapolated to infinity) were compared to determine the % bioavailability (% F) by the following formula: Dose (IV)*AUC (oral)/Dose (oral)*AUC (IV). […]"}, "[5]": {"details": "melanophore dispersion assay, read-out: RUP3 (EC50)"}}, "note": "Read-outs that look alike come from different tables or passages of the source."}
{"smiles": "COc1cc(S(C)(=O)=O)ccc1Nc1ncnc(OC2CCN(C(=O)OC(C)C)CC2)c1OC", "note": "[Compound 10, 4-[6-(4-Methanesulfonyl-2-methoxy-phenylamino)-5-methoxy-pyrimidin-4-yloxy]-piperidine-1-carboxylic acid isopropyl ester]", "values": [{"measurement": "EC50", "setting": "[1]; [5]", "value": 26, "unit": "nM"}]}
{"smiles": "COc1c(Nc2ccc(S(C)(=O)=O)cc2F)ncnc1OC1CCN(C(=O)OC(C)C)CC1", "note": "[Compound 24, 4-[6-(2-Fluoro-4-methanesulfonyl-phenylamino)-5-methoxy-pyrimidin-4-yloxy]-piperidine-1-carboxylic acid isopropyl ester]", "values": [{"measurement": "EC50", "setting": "[1]; [5]", "value": 0.49, "unit": "nM"}]}
{"smiles": "CCOc1cc(F)c(Nc2ncnc(OC3CCN(C(=O)OC(C)C)CC3)c2OC)cc1F", "note": "[Compound 75, 4-[6-(4-Ethoxy-2,5-difluoro-phenylamino)-5-methoxy-pyrimidin-4-yloxy]-piperidine-1-carboxylic acid isopropyl ester]", "values": [{"measurement": "lowering of blood glucose in oGTT (in words)", "setting": "[2]", "value": "lowered blood glucose in a dose-dependent manner"}, {"measurement": "Mean % Inhibition of Glucose Excursion", "setting": "[2]; dose 3 mg/Kg", "value": 22, "unit": "%"}, {"measurement": "Mean % Inhibition of Glucose Excursion", "setting": "[2]; dose 10 mg/Kg", "value": 34, "unit": "%"}]}
{"smiles": "COc1c(Oc2ccc(S(C)(=O)=O)cc2F)ncnc1OC1CCN(C(=O)OC(C)C)CC1", "note": "[Compound 76, 4-[6-(2-Fluoro-4-methanesulfonyl-phenoxy)-5-methoxy-pyrimidin-4-yloxy]-piperidine-1-carboxylic acid isopropyl ester]", "values": [{"measurement": "EC50", "setting": "[1]; [5]", "value": 2.51, "unit": "nM"}]}
{"smiles": "COc1c(OC2CCN(C(=O)OC(C)C)CC2)ccnc1Nc1ccc(S(C)(=O)=O)cc1F", "note": "[Compound 77, 4-[2-(2-Fluoro-4-methanesulfonyl-phenylamino)-3-methoxy-pyridin-4-yloxy]-piperidine-1-carboxylic acid isopropyl ester]", "values": [{"measurement": "solubility", "setting": "[3]; pH=2", "value": 1120, "unit": "µg/mL"}, {"measurement": "solubility", "setting": "[3]; pH=5", "value": 190, "unit": "µg/mL"}]}
{"smiles": "COc1c(Nc2ccc(NCCO)nc2C)ncnc1OC1CCN(C(=O)OC(C)C)CC1", "note": "[Compound 78, 4-{6-[6-(2-Hydroxy-ethylamino)-2-methyl-pyridin-3-ylamino]-5-methoxy-pyrimidin-4-yloxy}-piperidine-1-carboxylic acid isopropyl ester]", "values": [{"measurement": "solubility", "setting": "[3]; pH=2", "value": 1450, "unit": "µg/mL"}, {"measurement": "solubility", "setting": "[3]; pH=5", "value": 380, "unit": "µg/mL"}]}
{"smiles": "COc1c(Nc2ccc(S(C)(=O)=O)nc2C)ncnc1OC1CCN(C(=O)OC(C)C)CC1", "note": "[Compound 84, 4-[6-(6-Methanesulfonyl-2-methyl-pyridin-3-ylamino)-5-methoxy-pyrimidin-4-yloxy]-piperidine-1-carboxylic acid isopropyl ester]", "values": [{"measurement": "dose escalation pharmacokinetics, AUC vs dose (in words)", "setting": "[4]; FIG. 5", "value": "linear dose escalation pharmacokinetics"}, {"measurement": "dose escalation pharmacokinetics, AUC vs dose (in words)", "setting": "[4]; FIG. 5, listed as 4-[6-(6-Methanesulfonyl-2-methyl-pyridin-3-ylamino)-5-methoxy-pyrimidin-4-yloxy]", "value": "essentially linear dose escalation pharmacokinetics"}, {"measurement": "EC50", "setting": "[1]", "value": 3.55, "unit": "nM"}, {"measurement": "agonist activity at the RUP3 receptor (in words)", "setting": "[1]", "value": "potent agonist"}, {"measurement": "reduction in AUC (blood glucose, oGTT)", "setting": "[2]; Experiment 1, 30 mpk", "value": 38, "unit": "%"}, {"measurement": "reduction in AUC (blood glucose, oGTT)", "setting": "[2]; Experiment 2, 30 mpk", "value": 84, "unit": "%"}, {"measurement": "lowering of blood glucose in oGTT (in words)", "setting": "[2]", "value": "able to lower blood glucose"}]}
